Source: patent publication US12595236B2, “Pyrimidine-2,4-diamine compound and preparation method and application thereof” (ANHUI MEDICAL UNIVERSITY, priority 2021, dated 2026)

Columns and labels:
[1] = biological target: T1, intracellular cathepsin C in THP-1 cells (Homo sapiens, UniProt P53634); assay: In vitro inhibitory effect on intracellular cathepsin C in THP-1 cells; type: cell-based; conditions: 1 h incubation at 37° C., h-gly-arg-amc 200 μM, read-out: THP-1 CatC IC50
T1 construct: endogenous in cells; host or cells: THP-1
T1 sequence (P53634 25-463): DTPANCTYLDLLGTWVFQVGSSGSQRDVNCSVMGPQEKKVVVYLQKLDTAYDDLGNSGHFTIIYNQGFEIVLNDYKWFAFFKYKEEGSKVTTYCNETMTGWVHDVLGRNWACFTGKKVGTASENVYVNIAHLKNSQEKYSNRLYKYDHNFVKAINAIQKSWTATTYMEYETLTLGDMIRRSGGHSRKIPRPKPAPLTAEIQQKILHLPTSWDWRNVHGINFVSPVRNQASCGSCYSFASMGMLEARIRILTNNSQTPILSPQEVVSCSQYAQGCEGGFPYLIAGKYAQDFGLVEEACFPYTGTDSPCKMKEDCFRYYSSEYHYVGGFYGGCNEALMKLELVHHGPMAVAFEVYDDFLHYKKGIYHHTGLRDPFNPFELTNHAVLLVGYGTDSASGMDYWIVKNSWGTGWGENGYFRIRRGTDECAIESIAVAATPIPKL

[2] = biological target: human recombinant cathepsin C (Homo sapiens, UniProt P53634); assay: In vitro inhibitory effect on human recombinant cathepsin C (h-gly-arg-amc substrate); type: biochemical; conditions: human recombinant cathepsin C 2 nM, 30 min preincubation at 25° C., substrate 100 μM; read-out: CatC IC50
Chain of human recombinant cathepsin C (P53634 25-463): as above

[3] = biological target: T2, intracellular cathepsin C in U937 cells (Homo sapiens, UniProt P53634); assay: In vitro inhibitory effect on intracellular cathepsin C in U937 cells; type: cell-based; conditions: 1 h incubation at 37° C., h-gly-arg-amc 200 μM, read-out: U937 CatC IC50
T2 construct: endogenous in cells; host or cells: U937
T2 sequence (P53634 25-463): as above

COPD rat model = assay: In vivo anti-inflammatory activity assessment, COPD model (fumigation and LPS); parameters: species or system rats; conditions: oral 5, 15, 45 mg/kg twice a day
Protocol: In Vivo Anti-Inflammatory Activity Assessment:
(§1) A combination of fumigation and LPS (Sigma) was used. […] Except for the negative control group, all rats were exposed to cigarette smoke (XIONGSHI) for 45 min in each day from day 1 to day 13 and day 15 to day 30, subjected to tracheal instillation of LPS ([…]) on day 0 (start point of the study), and subjected to tracheal instillation of LPS ([…]) on day 14. The body weight was recorded every three days, and the behavior, coat color and breathing were observed daily. On day 31, the animals were euthanized with an overdose of chloral hydrate. Subsequently, lung, bronchoalveolar lavage fluid (BALF), blood, bone marrow samples were collected and stored at −80° C. until being detected. The levels of cathepsin C and NSP were detected with previously described methods, and cytokine levels in all samples were analyzed by ELISA kits (MULTI SCIENCES).

cathepsin C and NSPs = assay: Test of in vivo inhibition of cathepsin C and NSPs in normal mice; conditions: C57BL/6 mice, oral 5, 15, 45 mg/kg for 6 days; bone marrow and blood; dose-dependent
Protocol: Test of In Vivo Inhibition of Cathepsin C and NSPs.
C57BL/6 mice (half sex, about 20 g, purchased from the Department of Animal Science of Anhui Medical University) were randomly divided into four groups (N=6). […] Mice in the control group were administered with the same amount of normal saline twice a day for 6 days. At the end, bone marrow and blood were drawn to analyze the activity of cathepsin C and NSPs. Bone marrow and blood lysates were added to a 384-well plate. A synthetic peptide substrate was used to analyze the activity of NSPs and cathepsin C.

[4] = tested on: cathepsin C and downstream NSPs; assay: Cathepsin C and NSP levels in COPD model; type: in vivo; conditions: COPD rats, oral 5, 15, 45 mg/kg twice a day; bone marrow, blood, lung, and BALF; dose-dependent
Protocol: as §1

[5] = tested on: cytokines (IFN-γ, IL-1β, IL-6, IL-17, TNF-α, GM-CSF, IL-10); assay: Cytokine levels in COPD model by ELISA; type: in vivo; conditions: COPD rats; bone marrow, blood, lung, and BALF; dose-dependent
Protocol: as §1

[6] = In vivo acute toxicity evaluation; conditions: mouse, ICR mice, oral, 1500 mg/kg at one time, observed one week
From the text: (§2) In Vivo Acute Toxicity Evaluation:
(§3) The mice were randomly divided into two groups and subjected to adaptive feeding for one week. […] The body weight, mortality and behavior of the mice were observed and recorded daily for one week. Subsequently, the mice were anesthetized and the tissues were used for HE staining.

ICR mice = assay: In vivo acute toxicity evaluation; conditions: mouse, po, 1500 mg/kg
From the text: as §2, §3

Compound | IC50 [1] [µM] | IC50 [2] [µM] | IC50 [3] [µM] | histopathological changes of lung tissue (H&E staining) (COPD rat model; COPD rat model) | body weight (COPD rat model; COPD rats) | pulmonary inflammation and systemic inflammation (COPD rat model; COPD rats, 28 days, compared with the model group) | cathepsin C activity and downstream NSP activation (cathepsin C and NSPs) | cathepsin C activity and downstream NSP activation [4] | IL-10 level [5] | level of pro-inflammatory cytokines (IFN-γ, IL-1β, IL-6, IL-17, TNF-α, and GM-CSF) [5] | LD50 at 1 week [6] [mg/kg] | pathological changes in tissues and organs (HE staining) (ICR mice)
CON1CCN(c2ccc(Nc3ncc(C)c(Nc4cccc(C(F)(F)F)c4)n3)nc2)CC1 [Compound 67, 5-methyl-N^2-(5-(4-methoxypiperazin-1-yl)pyridin-2-yl)-N^4-(3-(trifluoromethyl)phenyl)pyrimidine-2,4-diamine] | 0.1398 ± 0.00103 | 0.167 ± 0.00201 | 0.156 ± 0.00213 | – | – | – | – | – | – | – | – | –
CN1CCN(c2ccc(Nc3ncc(Cl)c(Nc4cccc(C(F)(F)F)c4)n3)nc2)CC1 [Compound 41, 5-chloro-N^2-(5-(4-methylpiperazin-1-yl)pyridin-2-yl)-N^4-(3-(trifluoromethyl)phenyl)pyrimidine-2,4-diamine] | – | – | – | ameliorated these histopathological changes in an obvious dose-dependent manner | lost their weight slowly and gained weight slightly after about 20 days | significantly less suffered from pulmonary inflammation and systemic inflammation | decreased obviously | decreased obviously | increased cytokines (IL-10) in a dose-dependent manner | decreased level of pro-inflammatory cytokines | > 1500 | no pathological changes were found
5-chloro-N^2-(5-(4-(dimethylamino)phenyl)pyridin-2-yl)-N^4-(3-(trifluoromethyl)phenyl)pyrimidine-2,4-diamine [Compound 61] | 0.2782 ± 0.0012 | 0.3053 ± 0.0027 | 0.3775 ± 0.0009 | – | – | – | – | – | – | – | – | –
CCCCN1CCN(c2ccc(Nc3ncc(Cl)c(Nc4cccc(C(F)(F)F)c4)n3)nc2)CC1 [Compound 48, N^2-(5-(4-butylpiperazin-1-yl)pyridin-2-yl)-5-chloro-N^4-(3-(trifluoromethyl)phenyl)pyrimidine-2,4-diamine] | 0.2405 ± 0.0012 | – | 0.199 ± 0.00203 | – | – | – | – | – | – | – | – | –
